We go through 22 compounds from patent publication US5132463A, “1,3-diaryl cyclopentanes and derivatives thereof as PAF antagonists” (Merck & Co., Inc., priority 1991, dated 1992).

For the assay, the target named is T1, PAF receptor (specific receptor binding site on rabbit platelet plasma membranes) (Oryctolagus cuniculus, UniProt G1TEI7).
T1 construct: 100 μg of the platelet plasma membrane suspension; from tissue; host or cells: rabbit platelet plasma membranes
Description: inhibition of 3H-PAF binding to rabbit platelet plasma membrane. The conditions noted are these: for IC50: 3H-PAF, pH 7.5, 0° C. The protocol: They inhibit in vitro PAF-induced functions in both the cellular and tissue levels by changing the PAF binding to its specific receptor site. This ability to inhibit the PAF binding to its specific receptor binding site on rabbit platelet plasma membranes was measured by an assay recently developed by us.
The inhibition of H^3 -PAF binding to the rabbit platelet plasma membrane by a PAF antagonist of Formula (I) was determined by isotopic labeling and filtration techniques. Generally, a series of Tris-buffered solutions of the selected antagonist at predetermined concentrations were prepared. Each of these solutions contains 1 pmole of ^3 H-PAF, a known amount of the test antagonist, and a sufficient amount of the pH 7.5 Tris-buffer solution (10 mM Tris, 0.25% bovine serum albumin, and 150 mM NaCl per ml water) to make the final volume of 1 ml. After adding into a set of test tubes each with 100 μg of the platelet plasma membrane suspension (S. B. Hwang, et al., Biochemistry, Vol. 22, pp. 4756-4763, 1983) and one of the Tris-buffer solutions described above, the resulting mixture in each test tube was incubated at 0° C. for about one hour or until the reaction was complete. Two control samples, one of which (C1) contains all the ingredients described above except the antagonist and the other (C 2) contains C1 plus a 1000-fold excess of unlabeled PAF, were also prepared and incubated simultaneously with the test samples. After the incubation was completed, the contents of each test tube were filtered under vacuo through a Whatman GF/C fiberglass filter and the residue washed rapidly several times with a total of 20 ml cold (0°-5° C.) Tris-buffer solution. Each washed residue was then suspended in 10 ml scintillation solution (Aquasol 2, New England Nuclear, Conn.) and the radioactivity was counted in a Packard Tri-Carb 460CD Liquid Scintillation System. Defining the counts from a test sample as "Total binding with antagonist"; the counts from the control sample C1, as "Total binding C1 "; and the counts from the control sample C2 as "non-specific binding C2 ", the percent inhibition of each test antagonist can be determined by the following equation: [formula]

The mark [1] stands for this setting: Table (A), at 300 nM, read-out: PAF Receptor Binding Inhibition, Percent Inhibition.

Molecules are shown by their SMILES. Values joined by “and” are separate entries in the source; they are usually repeats but may differ in a detail not shown here. Equal values may be shown once. Read-outs that look alike come from different tables or passages of the source.

T1 sequence (G1TEI7 1-342): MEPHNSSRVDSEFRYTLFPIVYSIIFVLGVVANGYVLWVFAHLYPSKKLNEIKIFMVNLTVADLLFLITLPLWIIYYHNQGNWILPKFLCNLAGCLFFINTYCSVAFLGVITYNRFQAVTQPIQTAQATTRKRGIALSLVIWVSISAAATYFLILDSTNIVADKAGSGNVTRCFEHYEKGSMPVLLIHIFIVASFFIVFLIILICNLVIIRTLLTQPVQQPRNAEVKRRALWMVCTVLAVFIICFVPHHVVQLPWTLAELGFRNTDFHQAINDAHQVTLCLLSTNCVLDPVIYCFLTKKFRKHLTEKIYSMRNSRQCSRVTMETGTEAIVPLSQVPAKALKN

The inhibition is how much of the control response was suppressed. As for `COc1cc([C@@H]2CC[C@@H](c3cc(OC)c(OC)c(OC)c3)C2OCC(=O)O)cc(OC)c1OC` (relative stereo), the inhibition at 0.3 µM under setting [1] stood at 16%.

A word on the IC50: it is the point on the concentration scale where inhibition reaches its midpoint. A low value points to higher potency. For the compound `CCOC1[C@H](c2cc(OC)c(OC)c(OC)c2)CC[C@H]1c1cc(OC)c(OC)c(OC)c1` (relative stereo), where the note is “Table (A)”, the IC50 worked out at 30 nM.

Compound `CON=C1[C@@H](c2cc(OC)c(OC)c(OC)c2)CC[C@@H]1c1cc(OC)c(OC)c(OC)c1` (relative stereo) [NOCH3, Trans-2,5-bis(3,4,5-trimethoxyphenyl)cyclopentanone-O-methyloxime] gave an IC50 (Table (A)) of 5 nM.

As to `C#CCOC1[C@H](c2cc(OC)c(OC)c(OC)c2)CC[C@H]1c1cc(OC)c(OC)c(OC)c1` (relative stereo), the IC50 (Table (A)) is 1 nM.

`CCCOc1c(OC)cc([C@H]2CC[C@H](c3cc(OC)c(OC)c(OC)c3)[C@@H]2OC)cc1C(N)=O` (relative stereo) [OCH3, (CO)NH2]: for the setting “Table (B)”, the IC50 was 124 nM and 47 nM.

For the setting “Table (A)”, `COc1cc([C@H]2CC[C@H](c3cc(OC)c(OC)c(OC)c3)C2=NO)cc(OC)c1OC` (relative stereo) [NOH, trans-2,5-bis(3,4,5-trimethoxyphenyl)cyclopentanone oxime] returned an IC50 of 5.8 nM.

As to `COc1cc([C@@H]2CC[C@@H](c3cc(OC)c(OC)c(OC)c3)C2OCCN(C)C)cc(OC)c1OC` (relative stereo), the IC50 (Table (A)) turned out to be 100 nM.

In the case of `CCOC(=O)COC1[C@H](c2cc(OC)c(OC)c(OC)c2)CC[C@H]1c1cc(OC)c(OC)c(OC)c1` (relative stereo), the IC50 (Table (A)) is 3.6 nM.

Turning to `COCCOC1[C@H](c2cc(OC)c(OC)c(OC)c2)CC[C@H]1c1cc(OC)c(OC)c(OC)c1` (relative stereo), the IC50 (Table (A)) was found to be 100 nM.

Compound `CCCOc1c(Br)cc([C@@H]2CC[C@@H](c3cc(OC)c(OC)c(OC)c3)[C@H]2OC)cc1OC` (relative stereo) [OCH3, Br] came in with an IC50 (Table (B)) of 47 nM.

As to `CCCOc1c(OC)cc([C@@H]2CC[C@@H](c3cc(OC)c(OC)c(OC)c3)[C@@H]2OC)cc1S(C)(=O)=O` (relative stereo) [OCH3, SO2 CH3], under “Table (B)”, the IC50 is 4.3 nM and 3.8 nM.

`COc1cc([C@@H]2CC[C@@H](c3cc(OC)c(OC)c(OC)c3)C2OC(C)=O)cc(OC)c1OC` (relative stereo) [OCOCH3, 1α-acetoxy-2α,5β-bis(3,4,5-trimethoxypheny)cyclopentane] yielded an IC50 (Table (A)) of 100 nM.

Compound `COc1cc([C@@H]2CC[C@@H](c3cc(OC)c(OC)c(OC)c3)C2OCc2ccccc2)cc(OC)c1OC` (relative stereo) [OCH2 C6 H5] displayed an IC50 (Table (A)) of 48 nM.

`CCCOC1[C@H](c2cc(OC)c(OC)c(OC)c2)CC[C@H]1c1cc(OC)c(OC)c(OC)c1` (relative stereo) had an IC50 (Table (A)) of 30 nM.

Turning to `COc1cc([C@@H]2CC[C@@H](c3cc(OC)c(OC)c(OC)c3)C2)cc(OC)c1OC` (relative stereo) [H, 1α,3β-bis(3,4,5-trimethoxyphenyl)cyclopentane], the IC50 (Table (A)) is 20 nM.

Consider `COc1cc([C@@H]2CC[C@@H](c3cc(OC)c(OC)c(OC)c3)C2OCC2CC2)cc(OC)c1OC` (relative stereo), for which the IC50 (Table (A)) worked out at 19 nM.

With `C=CCOC1[C@H](c2cc(OC)c(OC)c(OC)c2)CC[C@H]1c1cc(OC)c(OC)c(OC)c1` (relative stereo), the IC50 (Table (A)) turned out to be 4.8 nM.

On to `COc1cc([C@@H]2CC[C@@H](c3cc(OC)c(OC)c(OC)c3)C2OCC(=O)N(C)C)cc(OC)c1OC` (relative stereo), for which the inhibition at 0.3 µM under setting [1] was 23%.

With `COc1cc([C@@H]2CC[C@@H](c3cc(OC)c(OC)c(OC)c3)C2O)cc(OC)c1OC` (relative stereo) [OH, trans-2,5-bis(3,4,5-trimethoxyphenyl)cyclopentanol], the inhibition at 0.5 µM (Table (A), at 500 nM, read-out: PAF Receptor Binding Inhibition, Percent Inhibition) amounted to 84%.

Under “Table (A)”, `COc1cc([C@@H]2CC[C@@H](c3cc(OC)c(OC)c(OC)c3)C2OC)cc(OC)c1OC` (relative stereo) [OCH3, 1α-Methoxy-2α,5β-bis-(3,4,5-trimethoxyphenyl)cyclopentane] displayed an IC50 of 8.3 nM.

Consider `CCCOc1c(OC)cc([C@@H]2CC[C@@H](c3cc(OC)c(OC)c(OC)c3)[C@@H]2O)cc1SC` (relative stereo) [OH, SCH3], for which the “PAF Receptor Binding Inhibition, Percent Inhibition” value (Table (B), at 300 nM, 0.3 µM) was found to be 38%. For the same compound, the inhibition at 0.3 µM (Table (B), at 300 nM, read-out: PAF Receptor Binding Inhibition, Percent Inhibition) came out at 23%.

On to `CCCOc1c(OC)cc([C@@H]2CC[C@@H](c3cc(OC)c(OC)c(OC)c3)[C@@H]2OC)cc1[S+](C)[O-]` (relative stereo) [OCH3, SOCH3], for which the 50% inhibitory concentration (IC50) (Table (B)) was 18 nM and 9.3 nM.
